Assay results reported in ChEMBL document CHEMBL3045891, “Effects of three neem-based insecticides on diamondback moth (lepidoptera: plutellidae)” (2003).
Activity calls are given as the source filed them. The rule behind the calls is not given here.

What was measured:
Plutella xylostella [1] = experiment: Antifeedant activity against second-instar of Plutella xylostella (diamondback moth) on cabbage leaves assessed as leaf disks damage; assay type: functional
Plutella xylostella [2] = experiment: Antifeedant activity against larvae of Plutella xylostella (diamondback moth) on cabbage leaves assessed as diameter of larvae after 5 days; assay type: functional
Plutella xylostella [3] = experiment: Insecticidal activity against Plutella xylostella (diamondback moth) eggs on cabbage leaves assessed as eggs developed to neonates after 5 days relative to control; assay type: functional
Plutella xylostella [4] = experiment: Antifeedant activity against fourth-instar of Plutella xylostella (diamondback moth) on cabbage leaves assessed as leaf disks damage; assay type: functional
Plutella xylostella [5] = experiment: Antifeedant activity against larvae of Plutella xylostella (diamondback moth) on cabbage leaves assessed as length of larvae after 5 days; assay type: functional
Plutella xylostella [6] = experiment: Antifeedant activity against neonates of Plutella xylostella (diamondback moth) on cabbage leaves assessed as leaf disks damage; assay type: functional
Plutella xylostella [7] = experiment: Antifeedant activity against larvae of Plutella xylostella (diamondback moth) on cabbage leaves assessed as weight of larvae after 5 days; assay type: functional
Plutella xylostella [8] = experiment: Antifeedant activity against third-instar of Plutella xylostella (diamondback moth) on cabbage leaves assessed as leaf disks damage; assay type: functional
Plutella xylostella [9] = experiment: Reduction of oviposition in adult Plutella xylostella (diamondback moth) in aluminium foil assessed as number of egg oviposited after 24 hr by two choice test; assay type: functional, organism-based
Plutella xylostella [10] = experiment: Reduction of oviposition in adult Plutella xylostella (diamondback moth) in cabbage leaves assessed as number of egg oviposited after 24 hr by no choice test; assay type: functional, organism-based
Plutella xylostella [11] = experiment: Reduction of oviposition in adult Plutella xylostella (diamondback moth) in cabbage leaves assessed as number of egg oviposited after 24 hr by two choice test; assay type: functional, organism-based
Plutella xylostella [12] = experiment: Reduction of oviposition in adult Plutella xylostella (diamondback moth) in aluminium foil assessed as number of egg oviposited after 24 hr by no choice test; assay type: functional, organism-based
Plutella xylostella [13] = experiment: Insecticidal activity against larvae of Plutella xylostella (diamondback moth) on cabbage leaves after 5 days; assay type: functional, organism-based
Plutella xylostella [14] = experiment: Insecticidal activity against third-instar of Plutella xylostella (diamondback moth) on cabbage leaves assessed as mortality after 5 days; assay type: functional, organism-based
Plutella xylostella [15] = experiment: Insecticidal activity against neonates of Plutella xylostella (diamondback moth) on cabbage leaves assessed as survival after 5 days; assay type: functional
Plutella xylostella [16] = experiment: Insecticidal activity against third-instar of Plutella xylostella (diamondback moth) on cabbage leaves assessed as survival after 3 days; assay type: functional

SMILES | Activity (Plutella xylostella [1]) | Activity (Plutella xylostella [2]) | Activity (Plutella xylostella [3]) | Activity (Plutella xylostella [4]) | Activity (Plutella xylostella [5]) | Activity (Plutella xylostella [6]) | Activity (Plutella xylostella [7]) | Activity (Plutella xylostella [8]) | Activity (Plutella xylostella [9]) | Activity (Plutella xylostella [10]) | Activity (Plutella xylostella [11]) | Activity (Plutella xylostella [12]) | Activity (Plutella xylostella [13]) | Activity (Plutella xylostella [14]) | Survival (Plutella xylostella [15]) | Survival (Plutella xylostella [16])
C/C=C(\C)C(=O)O[C@H]1C[C@@H](OC(C)=O)[C@@]2(C(=O)OC)CO[C@H]3[C@@H](O)[C@@](C)([C@]45O[C@@]4(C)[C@@H]4C[C@H]5O[C@@H]5OC=C[C@@]54O)[C@H]4[C@]1(CO[C@]4(O)C(=O)OC)[C@@H]32 (stereo in doubt; form 1) [AZADIRACHTIN A] | 2.1% | 2 mm | 75.2% | 10.1% | 13.5 mm | <=2% | 0.013 mg | 5.1% |  |  |  |  |  |  |  | 
C/C=C(\C)C(=O)O[C@H]1C[C@@H](OC(C)=O)[C@@]2(C(=O)OC)CO[C@H]3[C@@H](O)[C@@](C)([C@]45O[C@@]4(C)[C@@H]4C[C@H]5O[C@@H]5OC=C[C@@]54O)[C@H]4[C@]1(CO[C@]4(O)C(=O)OC)[C@@H]32 (stereo in doubt; form 2) |  |  |  |  |  |  |  |  | Active | inactive | inactive | inactive | Active | Active |  | 
C/C=C(\C)C(=O)O[C@H]1C[C@@H](OC(C)=O)[C@@]2(C(=O)OC)CO[C@H]3[C@@H](O)[C@@](C)([C@]45O[C@@]4(C)[C@@H]4C[C@H]5O[C@@H]5OC=C[C@@]54O)[C@H]4[C@]1(CO[C@]4(O)C(=O)OC)[C@@H]32 (stereo in doubt; form 3) |  |  |  |  |  |  |  |  | Active | inactive | inactive | inactive | Active | Active |  | 
C/C=C(\C)C(=O)O[C@H]1C[C@@H](OC(C)=O)[C@@]2(C(=O)OC)CO[C@H]3[C@@H](O)[C@@](C)([C@]45O[C@@]4(C)[C@@H]4C[C@H]5O[C@@H]5OC=C[C@@]54O)[C@H]4[C@]1(CO[C@]4(O)C(=O)OC)[C@@H]32 (stereo in doubt; form 2) [AZADIRACHTIN A] |  | 2.5 mm | 66.2% |  | 14.7 mm |  | 0.012 mg |  |  |  |  |  |  |  |  | 
C/C=C(\C)C(=O)O[C@H]1C[C@@H](OC(C)=O)[C@@]2(C(=O)OC)CO[C@H]3[C@@H](O)[C@@](C)([C@]45O[C@@]4(C)[C@@H]4C[C@H]5O[C@@H]5OC=C[C@@]54O)[C@H]4[C@]1(CO[C@]4(O)C(=O)OC)[C@@H]32 (stereo in doubt; form 3) [AZADIRACHTIN A] |  | 2.2 mm | 61.6% |  | 14.8 mm |  | 0.016 mg |  |  |  |  |  |  |  | 50% | <60%
C/C=C(\C)C(=O)O[C@H]1C[C@@H](OC(C)=O)[C@@]2(C(=O)OC)CO[C@H]3[C@@H](O)[C@@](C)([C@]45O[C@@]4(C)[C@@H]4C[C@H]5O[C@@H]5OC=C[C@@]54O)[C@H]4[C@]1(CO[C@]4(O)C(=O)OC)[C@@H]32 (stereo in doubt; form 1) |  |  |  |  |  |  |  |  | Active | inactive | inactive | inactive | Active | Active |  | 
